From ChEMBL document CHEMBL4665709, “Rational Avoidance of Protease Cleavage Sites and Symmetrical End-Tagging Significantly Enhances the Stability and Therapeutic Potential of Antimicrobial Peptides” (J Med Chem, 2020)
Values after ≈ are worked out from the molar mass of the structure shown. Active and inactive are the calls of the source. The rule behind the calls is not given here. Where a SMILES comes first, the peptide text is derived from it.

Legend:
Staphylococcus aureus [1] = assay: Antibacterial activity against Staphylococcus aureus ATCC 29213 after 18 to 24 hrs by CLSI-based broth microdilution method; format: functional; conditions: time hrs 18-24
Escherichia coli [2] = assay: Antibacterial activity against Escherichia coli ATCC 25922 infected in C57BL/6 mouse assessed as reduction in TNF-alpha level in serum at 10 mg/kg, ip measured after 11 hrs by ELISA; format: functional, organism-based
[3] = Stability of compound assessed as pepsin (unknown origin)-mediated drug degradation after 8 hrs by SDS-PAGE analysis; format: ADME; conditions: human
Lipopolysaccharide (LPS) = assay: Displacement of BODIPY-TR-cadaverine from Escherichia coli O111:B4 LPS after 4 hrs by fluorescence assay
Escherichia coli [4] = assay: Antibacterial activity against Escherichia coli ATCC 25922 infected in C57BL/6 mouse assessed as reduction in lesion in spleen at 10 mg/kg, ip measured after 11 hrs by hematoxylin and eosin staining based assay; format: functional, organism-based
[5] = Therapeutic index, ratio of MHC for human RBC to geometric mean of peptide MIC for methicillin-resistant Staphylococcus aureus 43300; format: toxicity; conditions: human red blood cells (RBC), read-out: TI
Escherichia coli [6] = assay: Antibacterial activity against Escherichia coli ATCC 25922 infected in C57BL/6 mouse reduction in inflammatory cell infiltration in liver at 10 mg/kg, ip measured after 11 hrs by hematoxylin and eosin staining based assay; format: functional, organism-based
[7] = Stability of compound at 100 degreeC after 30 to 90 mins; format: physicochemical; conditions: time 30-90 min
Staphylococcus aureus [8] = assay: Antibacterial activity against Staphylococcus aureus ATCC 29213 after 18 to 24 hrs in presence of 50% human serum by CLSI-based broth microdilution method; format: functional; conditions: time hrs 18-24
Escherichia coli [9] = assay: Antibacterial activity against Escherichia coli ATCC 25922 after 18 to 24 hrs in presence of 25% human serum by CLSI-based broth microdilution method; format: functional; conditions: time hrs 18-24
Escherichia coli [10] = assay: Antibacterial activity against Escherichia coli UB1005 after 18 to 24 hrs by CLSI-based broth microdilution method; format: functional; conditions: time hrs 18-24
Escherichia coli [11] = assay: Antibacterial activity against Escherichia coli ATCC 25922 after 18 to 24 hrs in presence of 4.5 mM K+ by CLSI-based broth microdilution method; format: functional; conditions: time hrs 18-24
[12] = Toxicity in C57BL/6 mouse assessed as change in body weigh at 20 mg/kg, ip measured for 5 days; format: organism-based; conditions: in vivo, 120 h, time 5 day
[13] = Cytotoxicity against HEK-293T cells assessed as cell viability at 128 uM by MTT assay relative to control; format: cell-based; conditions: human, read-out: Activity
Staphylococcus aureus [14] = assay: Antibacterial activity against Staphylococcus aureus ATCC 29213 after 18 to 24 hrs in presence of 6 uM NH4+ by CLSI-based broth microdilution method; format: functional; conditions: time hrs 18-24
Cell membrane [15] = assay: Induction of structural changes in membrane of Staphylococcus aureus ATCC 29213 assessed as cytoplasmic leakage at 1 times MIC after 1 hr by transmission electron microscopy
Escherichia coli [16] = assay: Antibacterial activity against Escherichia coli ATCC 25922 after 18 to 24 hrs by CLSI-based broth microdilution method; format: functional; conditions: time hrs 18-24
Staphylococcus aureus [17] = assay: Antibacterial activity against Staphylococcus aureus 29213 with 0.0625-2 mg/mL trypsin for 1 hr followed by test compound addition measured after 4 to 8 hrs by CLSI-based broth microdilution method; format: functional, organism-based; conditions: time hrs 4-8
Escherichia coli [18] = assay: Antibacterial activity against Escherichia coli ATCC 25922 infected in C57BL/6 mouse assessed as reduction in IL-1beta level in serum at 10 mg/kg, ip measured after 11 hrs by ELISA; format: functional, organism-based
Staphylococcus aureus [19] = assay: Antibacterial activity against Staphylococcus aureus ATCC 29213 after 18 to 24 hrs in presence of 150 mM Na+ by CLSI-based broth microdilution method; format: functional; conditions: time hrs 18-24
Escherichia coli [20] = assay: Antibacterial activity against Escherichia coli ATCC 25922 infected in C57BL/6 mouse assessed as reduction in lesion in kidney at 10 mg/kg, ip measured after 11 hrs by hematoxylin and eosin staining based assay; format: functional, organism-based
Cell membrane [21] = assay: Induction of structural changes in membrane of Staphylococcus aureus ATCC 29213 assessed as sparsity at 1 times MIC after 1 hr by transmission electron microscopy; format: subcellular
Escherichia coli [22] = assay: Antibacterial activity against Escherichia coli ATCC 25922 measured after 18 to 24 hrs in presence of pepsin by CLSI-based broth microdilution method; format: functional, organism-based; conditions: time hrs 18-24
[23] = Toxicity in C57BL/6 mouse assessed as effect on aspartate aminotransferase level at 20 mg/kg, ip measured after 5 days; format: organism-based; conditions: in vivo, 120 h, time 5 day
Cell membrane [24] = assay: Induction of morpholoical changes in membrane of Escherichia coli ATCC 25922 assessed as breakage in bacterial membrane at 1 times MIC after 1 hr by scanning electron microscopy
RAW264.7 [25] = assay: Antiinflammatory activity in mouse RAW264.7 cells assessed as inhibition of LPS-induced TNF-alpha production after 24 hrs by ELISA; format: functional, cell-based
[26] = Therapeutic index, ratio of MHC for human RBC to geometric mean of peptide MIC for Salmonella pullorum 7913; format: toxicity; conditions: human red blood cells (RBC), read-out: TI
[27] = Toxicity in C57BL/6 mouse assessed as effect on blood urea nitrogen level at 10 mg/kg, ip measured after 5 days; format: organism-based; conditions: in vivo, 120 h, time 5 day
RAW264.7 [28] = assay: Antiinflammatory activity in mouse RAW264.7 cells assessed as inhibition of LPS-induced IL-1beta production after 24 hrs by ELISA; format: functional, cell-based
Salmonella typhimurium = assay: Antibacterial activity against Salmonella typhimurium 14028 after 18 to 24 hrs by CLSI-based broth microdilution method; format: functional, Salmonella enterica subsp. enterica serovar Typhimurium; conditions: Salmonella enterica, time hrs 18-24
[29] = Toxicity in C57BL/6 mouse assessed as effect on creatinine level at 10 mg/kg, ip measured after 5 days; format: organism-based; conditions: in vivo, 120 h, time 5 day
Staphylococcus aureus [30] = assay: Antibacterial activity against Staphylococcus aureus 29213 with 0.0625-2 mg/mL chymotrypsin for 1 hr followed by test compound addition measured after 4 to 8 hrs by CLSI-based broth microdilution method; format: functional, organism-based; conditions: time hrs 4-8
Escherichia coli [31] = assay: Antibacterial activity against Escherichia coli ATCC 25922 measured after 18 to 24 hrs in presence of trypsin by CLSI-based broth microdilution method; format: functional, organism-based; conditions: time hrs 18-24
[32] = Stability of compound assessed as proteinase K (unknown origin)-mediated drug degradation after 8 hrs by SDS-PAGE analysis; format: ADME; conditions: human
Cell membrane [33] = assay: Induction of structural changes in membrane of Escherichia coli ATCC 25922 assessed as membrane rupture at 1 times MIC after 1 hr by transmission electron microscopy; format: subcellular
Cell membrane [34] = assay: Induction of structural changes in membrane of Escherichia coli ATCC 25922 assessed as sparsity at 1 times MIC after 1 hr by transmission electron microscopy; format: subcellular
Escherichia coli [35] = assay: Antibacterial activity against Escherichia coli ATCC 25922 infected in C57BL/6 mouse assessed as reduction in bleeding in kidney at 10 mg/kg, ip measured after 11 hrs by hematoxylin and eosin staining based assay; format: functional, organism-based
Cell membrane [36] = assay: Induction of morpholoical changes in membrane of Staphylococcus aureus ATCC 29213 assessed as corrugation in bacterial membrane at 1 times MIC after 1 hr by scanning electron microscopy; format: subcellular
[37] = Stability of compound assessed as proteinase K (unknown origin)-mediated drug degradation after 8 hrs by RP-HPLC analysis; format: ADME; conditions: human

Question: Which MIC (Staphylococcus aureus [1]) does the source give for `CC[C@H](C)[C@H](N)C(=O)N[C@H](C(=O)N[C@H](C(=O)N[C@@H](CS)C(=O)N[C@@H](CCCNC(=N)N)C(=O)N[C@@H](CCCCN)C(=O)N1CCC[C@H]1C(=O)N[C@H](C(=O)N[C@H](C(=O)N[C@@H](CS)C(=O)N[C@@H](CCCNC(=N)N)C(=O)N[C@@H](CCCCN)C(=O)N1CCC[C@H]1C(=O)N[C@H](C(=O)N[C@H](C(=O)N[C@@H](CS)C(=O)N[C@@H](CCCNC(=N)N)C(=O)N[C@@H](CCCCN)C(=O)N1CCC[C@H]1C(=O)N[C@H](C(=O)N[C@H](C(=O)N[C@@H](CS)C(=O)N[C@@H](CCCNC(=N)N)C(=O)N[C@@H](CCCCN)C(=O)N1CCC[C@H]1C(=O)N[C@H](C(=O)N[C@H](C(=O)N[C@H](C(N)=O)[C@@H](C)CC)[C@@H](C)CC)[C@@H](C)CC)[C@@H](C)CC)[C@@H](C)CC)[C@@H](C)CC)[C@@H](C)CC)[C@@H](C)CC)[C@@H](C)CC)[C@@H](C)CC)[C@@H](C)CC` (H-IIICRKPIICRKPIICRKPIICRKPIII-NH2) here?
Answer: The MIC was 8 µM (≈ 26.5 µg/mL).

Question: And the Activity (Escherichia coli [2])?
Answer: Its Activity is “Active”.

Question: And the Stabilty [3]?
Answer: Its Stabilty is “Stable”.

Question: And the Activity (Lipopolysaccharide (LPS))?
Answer: Its Activity is “Dose-dependent effect”.

Question: What about the Activity (Escherichia coli [4]) of the same compound?
Answer: The Activity was “Active”.

Question: What about the selectivity ratio [5] of the same compound?
Answer: The selectivity ratio was 28.5.

Question: What about the Activity (Escherichia coli [6]) of the same compound?
Answer: Its Activity is “Active”.

Question: And the Stabilty [7]?
Answer: The Stabilty was “Stable”.

Question: And the MIC (Staphylococcus aureus [8])?
Answer: The MIC was 16 µM.

Question: And the MIC (Escherichia coli [9])?
Answer: Its MIC is 4 µM.

Question: What about the MIC (Escherichia coli [10]) of the same compound?
Answer: The MIC was 2 µM (≈ 6.63 µg/mL).

Question: What about the MIC (Escherichia coli [11]) of the same compound?
Answer: Its MIC is 2 µM.

Question: What about the Activity [12] of the same compound?
Answer: The Activity was “Non-Toxic”.

Question: What about the viability at 128 µM [13] of the same compound?
Answer: Its viability at 128 µM is over 90%.

Question: What about the MIC (Staphylococcus aureus [14]) of the same compound?
Answer: The MIC was 8 µM.

Question: What about the Activity (Cell membrane [15]) of the same compound?
Answer: Its Activity is “Active”.

Question: What about the MIC (Escherichia coli [16]) of the same compound?
Answer: Its MIC is 2 µM (≈ 6.63 µg/mL).

Question: And the Activity (Staphylococcus aureus [17])?
Answer: Its Activity is “Active”.

Question: And the Activity (Escherichia coli [18])?
Answer: The Activity was “Active”.

Question: What about the MIC (Staphylococcus aureus [19]) of the same compound?
Answer: The MIC was 16 µM.

Question: What about the Activity (Escherichia coli [20]) of the same compound?
Answer: Its Activity is “Active”.

Question: And the Activity (Cell membrane [21])?
Answer: Its Activity is “Active”.

Question: What about the Activity (Escherichia coli [22]) of the same compound?
Answer: The Activity was “Active”.

Question: And the Activity [23]?
Answer: Its Activity is “Non-Toxic”.

Question: And the Activity (Cell membrane [24])?
Answer: The Activity was “Active”.

Question: What about the Activity (RAW264.7 [25]) of the same compound?
Answer: The Activity was “Dose-dependent effect”.

Question: What about the selectivity ratio [26] of the same compound?
Answer: The selectivity ratio was 57.

Question: And the Activity [27]?
Answer: Its Activity is “Non-Toxic”.

Question: What about the Activity (RAW264.7 [28]) of the same compound?
Answer: The Activity was “Dose-dependent effect”.

Question: What about the MIC (Salmonella typhimurium) of the same compound?
Answer: The MIC was 2 µM (≈ 6.63 µg/mL).

Question: And the Activity [29]?
Answer: The Activity was “Non-Toxic”.

Question: And the Activity (Staphylococcus aureus [30])?
Answer: The Activity was “Active”.

Question: And the Activity (Escherichia coli [31])?
Answer: The Activity was “Active”.

Question: And the Stabilty [32]?
Answer: Its Stabilty is “Stable”.

Question: What about the Activity (Cell membrane [33]) of the same compound?
Answer: Its Activity is “Active”.

Question: And the Activity (Cell membrane [34])?
Answer: The Activity was “Active”.

Question: What about the Activity (Escherichia coli [35]) of the same compound?
Answer: The Activity was “Active”.

Question: What about the Activity (Cell membrane [36]) of the same compound?
Answer: The Activity was “Active”.

Question: What about the Stabilty [37] of the same compound?
Answer: Its Stabilty is “Stable”.
